{"source": "a melting point compilation (Tetko et al.; mined from patent text by program, amines drawn as free bases though some values may be those of a salt)"}
{"units": {"melting point": "°C"}}
{"smiles": "CCOC(Cc1ccc(OCCN2CCOc3ccccc32)cc1)C(N)=O", "note": "(stereo not drawn)", "melting point": "107 to 109"}
{"smiles": "C[C@@H](SC(CO)CO)[C@](O)(Cn1cncn1)c1ccccc1F", "melting point": "121 to 123"}
{"smiles": "CCOC(=O)c1ccc(OC)nc1C(F)(F)F", "melting point": "150 to 152"}
{"smiles": "O=C(c1ccc(C(F)(F)F)cc1)N1Cc2c(-c3ccc(F)cc3)ncn2-c2ccccc21", "melting point": "211 to 212"}
{"smiles": "NS(=O)(=O)c1cc2cc(C=O)sc2o1", "melting point": "165 to 167"}
{"smiles": "COc1cccc(NC(=O)c2ccccc2C(c2ccc(O)cc2)c2ccc(O)cc2)c1", "melting point": "106 to 107"}
{"smiles": "Cc1cccc(C)c1NC(=O)c1ccc(S(C)=O)cc1", "note": "(stereo not drawn)", "melting point": "144 to 146"}
{"smiles": "COC(=O)C(c1cc2c(cc1Cl)OCO2)c1c[nH]c2cc(Br)ccc12", "note": "(stereo not drawn)", "melting point": "172 to 174"}
{"smiles": "Cc1cc(-c2ccccc2)nc2nc(SCc3ccccc3)nn12", "melting point": "154 to 155"}
{"smiles": "Cc1ccc(Cc2cnc(CCCSCc3cc(CN(C)C)ccn3)[nH]c2=O)cn1", "melting point": "110 to 112"}
{"smiles": "COc1cc(C)c2c(Oc3cccc(C(F)(F)F)c3)c(OC)cc(NC(C)CCCN3C(=O)c4ccccc4C3=O)c2n1", "note": "(stereo not drawn)", "melting point": "117 to 119"}
{"smiles": "CCN(c1ccc(Cl)cc1[N+](=O)[O-])S(=O)(=O)c1ccc(C)cc1", "melting point": "132 to 134"}
{"smiles": "O=Cc1cc(-c2cccs2)ccc1O", "melting point": "102 to 103"}
{"smiles": "O=C1c2cc(Cl)ccc2CC1Br", "note": "(stereo not drawn)", "melting point": "84 to 87"}
{"smiles": "CC(C)(C)OC(=O)NC1CCN(c2ccc(C(N)=O)cc2)CC1", "melting point": "> 270"}
{"smiles": "CCNC(=O)N1CCCC(n2nnnc2-c2cc(-c3cc(C(C)C)ccc3OC)c(O)cc2O)C1", "note": "(stereo not drawn)", "melting point": "223 to 226"}
{"smiles": "CC(C)C1COCc2nc3c(N)nc4cc(OCC(=O)N5CCOCC5)ccc4c3n21", "note": "(stereo not drawn)", "melting point": "137 to 139"}
{"smiles": "O=C(O)c1cc2c3c(c1)CCCC3CCC2", "melting point": "208 to 209"}
{"smiles": "COC(=O)Cn1c(=O)n(C)c(=O)n(-c2cc(Oc3c(Cl)ccc(C)c3Cl)ccc2[N+](=O)[O-])c1=O", "melting point": "200 to 202"}
{"smiles": "COc1ccc(C(O)CN2CCN(C(c3ccccc3)c3ccccc3)CC2)cc1OC", "note": "(stereo not drawn)", "melting point": 85}
{"smiles": "O=C(Nc1cc2[nH]c(=O)c(=O)[nH]c2cc1[N+](=O)[O-])C(F)(F)F", "melting point": "> 320"}
{"smiles": "CC(=O)NC(CCc1ccc(C(O)CCCCCc2ccccc2)cc1)(CO[Si](C)(C)C(C)(C)C)CO[Si](C)(C)C(C)(C)C", "note": "(stereo not drawn)", "melting point": "118 to 120"}
{"smiles": "Cc1sc2ncc(C(=O)CC(O)c3ccccc3)n2c1C", "note": "(stereo not drawn)", "melting point": 113}
{"smiles": "CS(=O)(=O)c1ccc(-n2c(-c3ccc(F)cc3)nc(O)c(C#N)c2=O)cc1", "melting point": "> 285"}
{"smiles": "O=C(O)CC(=O)Nc1cc2ccccc2cc1C(=O)O", "melting point": "225 to 227"}
{"smiles": "CS(=O)(=O)CS(=O)(=O)Cl", "melting point": "109 to 111"}
{"smiles": "C[C@@H]1Cc2ccsc2[C@H](C)N1CCNC(=O)c1ccc(NC(=O)C(F)(F)F)cc1", "note": "(relative stereo)", "melting point": "174 to 177"}
{"smiles": "C=Cc1ccccc1C1C(C(=O)OC)=C(C)NC(C)=C1C(=O)OC", "melting point": "140 to 148"}
{"smiles": "O=C(NCCO)c1cccc(-c2cccc3nn(Cc4cccc(C(F)(F)F)c4)cc23)n1", "melting point": "150 to 151"}
{"smiles": "COc1ccc(Cl)cc1C(=O)NCCc1ccc(-c2ccc(OC(C)(C)C(=O)O)cc2)cc1", "melting point": 145}
{"smiles": "CCCc1c(OCCCOc2cccc3c2CCCC3)ccc2c1OC(CCCC(O)CO)(CCCC(O)CO)CC2=O", "note": "(stereo not drawn)", "melting point": "87 to 88"}
{"smiles": "C#CC1(O)CN2CCC1CC2", "note": "(stereo not drawn)", "melting point": "199 to 202"}
{"smiles": "O=C1[C@@H]2C[C@H](OCc3ccc4cnccc4c3)CN2C(=O)N1c1cc(Cl)cc(Cl)c1", "melting point": 144}
{"smiles": "C=C(c1ccc(Br)cc1)c1ccc(OC)cc1", "melting point": "91.2 to 92.6"}
{"smiles": "COc1cc(-c2cnc3[nH]cc(C(=O)NCC(C)O)c3n2)cc(OC)c1OC", "note": "(stereo not drawn)", "melting point": "202 to 203"}
{"smiles": "CC(C)(C)OC(=O)/C(=C/c1ccccc1)C(=O)c1cc2ccccc2cc1O", "melting point": "132 to 135"}
{"smiles": "CCCN1CC=C(c2c[nH]c3ccc(OC)cc23)CC1", "melting point": 164}
{"smiles": "CCN1C(=O)C2C3CCC(CC3)C2(c2ccc(Cl)c(Cl)c2)C1=O", "note": "(stereo not drawn)", "melting point": "131 to 134"}
{"smiles": "CNC1=CC=CC(OCCCN2CCC(c3noc4cc(F)ccc34)CC2)(C(C)=O)C1", "note": "(stereo not drawn)", "melting point": "151 to 153"}
{"smiles": "CS(=O)(=O)N(CCc1ccc(Cl)cc1)Cc1cccnc1", "melting point": "77 to 78"}
{"smiles": "CCCCNC(=O)c1ccccc1CN1C(=O)C2(COc3cc4c(cc32)CCO4)c2ccccc21", "note": "(stereo not drawn)", "melting point": "176 to 178"}
{"smiles": "Cn1nnnc1C(C=O)=C(c1ccccc1)c1ccccc1", "melting point": "185 to 186"}
{"smiles": "CC1(C)N=C(c2ccccc2F)c2cc(N)ccc2-n2cnnc21", "melting point": 288}
{"smiles": "Cc1ccc2c(c1)C=Cc1cc(C)ccc1C2c1cn(-c2cc(NCC(=O)Nc3nc(CC(=O)O)cs3)nc(N(C)C)n2)c(=O)[nH]c1=O", "melting point": 220}
{"smiles": "CC(C)N1CCC(CNc2ccc(Cl)cc2C(=O)Nc2ccc(F)cn2)CC1", "melting point": "72 to 74"}
{"smiles": "C[C@H](CSC(=O)c1ccc(Cl)c(S(N)(=O)=O)c1)C(=O)O", "melting point": "152 to 153"}
{"smiles": "Cc1nc(-c2cc3[nH]c(=O)c(=O)[nH]c3cc2[N+](=O)[O-])c[nH]1", "melting point": "> 300"}
{"smiles": "O=Cc1cccc2c1CN(c1ccccc1)C2", "melting point": "120 to 122"}
{"smiles": "COC(=O)c1ccc(NCc2cc(O)ccc2O)cc1", "melting point": 175}
{"smiles": "CN1CCC(Nc2nc3ccccc3n2Cc2cnccn2)CC1", "melting point": 169}
{"smiles": "O=C(O)C(=O)c1ccc(OCCCc2ccc(F)cc2)cc1", "melting point": "77 to 78"}
{"smiles": "Nc1nc(Cl)c(C2=NCCN2)c(Cl)n1", "melting point": "197 to 198"}
{"smiles": "Nc1ncc(-c2ccccc2)nc1Sc1ccc(Cl)cc1", "melting point": "158 to 160"}
{"smiles": "CCCCCCc1ccc2c3ccc(C=O)cc3n(C)c2c1", "melting point": "55 to 56"}
{"smiles": "CC1Cc2ccccc2P1c1ccccc1P(c1ccccc1)c1ccccc1", "note": "(single isomer, unassigned; (+))", "melting point": "40 to 42"}
{"smiles": "COc1ccnc(CCc2nc3cc(-c4ccc(OC)c(OC)c4)cnc3[nH]2)c1", "melting point": "185 to 186"}
{"smiles": "CONC(=O)Nc1cc(C(C)(C)C)on1", "melting point": "145 to 148"}
{"smiles": "CC(C)c1nc2c(s1)C(=O)N(c1cccc(C(F)(F)F)c1)C2=O", "melting point": 80}
{"smiles": "CCCCOc1cc(C(=O)O)cc(N)c1-c1ccccc1", "melting point": "122 to 124"}
{"smiles": "CC(C)n1c(=O)sc2cc(N3C[C@H](C(N)=O)OC3=O)ccc21", "melting point": "183 to 184"}
{"smiles": "Fc1ccc(-c2ncn(C3CCNCC3)c2-c2ccnc(Oc3cccc(C(F)(F)F)c3)n2)cc1", "melting point": "137 to 138"}
{"smiles": "COc1cc(Br)ccc1C(C)CC(=O)C(=O)Nc1ccc2c(c1)COC2=O", "note": "(stereo not drawn)", "melting point": "136 to 140"}
{"smiles": "CN(C[C@H](O)[C@@H](O)[C@H](O)[C@H](O)CO)C(=O)CCCO", "melting point": "78 to 79"}
{"smiles": "COc1ccccc1NC=C1C(=O)N(c2ccc(C(=O)O)cc2)N=C1C", "melting point": "> 300"}
{"smiles": "CCn1c(=O)n(OCc2ccccc2)c(=O)c2cc(F)c(N3CCNCC3)cc21", "melting point": "166 to 167"}
{"smiles": "COC(=O)c1nc2cc(C(F)(F)F)ccc2c(O)c1C(=O)OC", "melting point": 210}
{"smiles": "CCOC(=O)c1c(C(F)F)nc(C(F)(F)F)c(C(=O)OCC)c1N", "melting point": "29 to 30"}
{"smiles": "C=CCc1c(O)ccc2c(=O)cc(C(=O)OCC)oc12", "melting point": "164 to 165"}
{"smiles": "CCCc1nc(C=O)c(C(=O)OCC)n1Cc1cc2c(cc1Cl)OCO2", "melting point": 105}
{"smiles": "CN1C(=O)C(c2cccc(-c3cncnc3)c2)(c2cc(C#N)n(C)c2)N=C1N", "note": "(stereo not drawn)", "melting point": "214 to 225"}
{"smiles": "COc1ccc(NC(NC(c2ccc(CC(C)(C)C)s2)C2CCCCC2)=C2C(=O)OC(C)(C)OC2=O)c(OC)c1", "note": "(stereo not drawn)", "melting point": "143 to 145"}
{"smiles": "CCOC(=O)C(=O)C1Cc2ccc(NS(=O)(=O)c3ccc(C)cc3)cc2C1=O", "note": "(stereo not drawn)", "melting point": "202 to 204"}
{"smiles": "Cc1c(Cl)c(C(=O)O)cc(Cl)c1C(=O)O", "melting point": "169 to 171"}
{"smiles": "CCOC(=O)c1cn(-c2nc(N)c(Cl)cc2F)c2c(Cl)c(F)c(F)cc2c1=O", "melting point": "186 to 189"}
{"smiles": "O=C1CC(c2ccccc2)C(=S)N1c1ccc(Cl)cc1", "note": "(stereo not drawn)", "melting point": "153 to 155"}
{"smiles": "O=[N+]([O-])c1ccc(Cc2cccnc2)cc1", "melting point": "87 to 88"}
{"smiles": "CCOC(=O)c1ccc(N2CCN(c3c(C)nc(N)nc3N)CC2)cc1", "melting point": "281 to 285"}
{"smiles": "CCN(CC)c1cccc(N(CC)CC)c1C(=O)O", "melting point": "112 to 114"}
{"smiles": "NNC(=O)c1cc(N2CCN(c3ccc([N+](=O)[O-])cc3)CC2)ccn1", "melting point": "230 to 232"}
{"smiles": "CSc1ccc(C(=O)C(C#N)C(=O)C(C)(C)C)c(Cl)c1", "note": "(stereo not drawn)", "melting point": "97 to 99"}
{"smiles": "O=C(O)C(Cc1ccccc1)Oc1ccc(-c2ccc(-c3c(Cc4ccccc4)sc4ccccc34)cc2)cc1", "note": "(stereo not drawn)", "melting point": "165 to 167"}
{"smiles": "Cc1cc2[nH]c(=O)c(=O)[nH]c2cc1Cl", "melting point": "> 330"}
{"smiles": "COc1c(Cl)ccc(-c2nc(N)c(C(C)OC)c(C(=O)O)n2)c1F", "note": "(stereo not drawn)", "melting point": "165 to 167"}
{"smiles": "COCCNc1cc(NCCOC)c([N+](=O)[O-])cc1Cl", "melting point": 106}
{"smiles": "CCCc1nc2c(nc1O)CCCC2", "melting point": "131 to 133"}
{"smiles": "CCS(=O)(=O)N(c1cc(-c2nsc(C(F)(F)F)c2Cl)c(Cl)cc1Cl)S(=O)(=O)CC", "melting point": "153 to 154"}
{"smiles": "O=C(O)Cc1ccc(OCCNC(=O)C2Cc3ccccc3N2S(=O)(=O)c2ccc(-c3cccc(C(F)(F)F)c3)cc2)c(Cl)c1", "note": "(stereo not drawn)", "melting point": 96}
{"smiles": "CCC1(c2ccc(Cl)cc2)OCc2c1cnc(CN(C)C)c2O", "note": "(stereo not drawn)", "melting point": 151}
{"smiles": "Cn1nnnc1SCC1c2cc(O)c(O)cc2CCN1C(=O)OCC(Cl)(Cl)Cl", "note": "(stereo not drawn)", "melting point": "201 to 207"}
{"smiles": "COc1ccc(OC)c(CCC(C)(O)CC2CCCCN2)c1", "note": "(stereo not drawn)", "melting point": "85 to 90"}
{"smiles": "N#CC(CN)C(CO)c1ccc(Cl)c(Cl)c1", "note": "(single isomer, unassigned; (+))", "melting point": "80 to 81"}
{"smiles": "N#Cc1cnc2c(oc3ccccc32)c1Oc1ccc(Cl)cc1F", "melting point": "138 to 140"}
{"smiles": "O=C(O)c1cnc(Cl)cc1C(F)(F)F", "melting point": "115 to 117"}
{"smiles": "COC1(c2cccc(OCc3ccc(-n4ccnc4C)cc3F)c2)CCOCC1", "melting point": "121 to 122"}
{"smiles": "O=C(Nc1cc(F)cc(F)c1)c1ccccn1", "melting point": "111 to 113"}
{"smiles": "CSc1ccc(-c2nc(SC)c(C#N)c(=O)n2-c2ccc(Cl)cc2)cc1", "melting point": "203 to 205"}
{"smiles": "CC(C)(C)c1cc(CN2CCN(c3ccc(N)cc3)CC2)cc(C(C)(C)C)c1O", "melting point": "152 to 154"}
{"smiles": "COc1cccc(-c2nc(-c3ccccc3)c3ncc(-c4ccc(C(C)=O)cc4)cc3n2)c1", "melting point": "133 to 134"}
